Source: the supplement of paper PMC8149375

Assays:
Details in all cases: treatment: drug + dasatinib (fixed dose, not stated); 5 days
769-P [1] = test: GI50 of drug in presence of dasatinib; higher = less potent
Experimental: (§1)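 Primary HTS combination arm: 8 RCC cell lines treated with 8 doses (up to 10 uM) of each library drug plus a fixed dose of dasatinib (dose not stated) for 5 days; viability read by CellTiter-Glo and normalised to DMSO. GI50 was fitted with XLfit, AUC is the area under the dose-response curve, and minimum viability is the lowest fraction of DMSO viability across doses.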

786-O [2] = test: as above
Experimental: as §1

A498 [3] = test: as above
Experimental: as §1

ACHN [4] = test: as above
Experimental: as §1

CAKI-1 [5] = test: as above
Experimental: as §1

SN12C [6] = test: as above
Experimental: as §1

TK-10 [7] = test: as above
Experimental: as §1

UO-31 [8] = test: as above
Experimental: as §1

769-P [9] = test: minimum viability across doses, drug + dasatinib, relative to DMSO (fraction); higher = less growth inhibition
Experimental: as §1

786-O [10] = test: as above
Experimental: as §1

A498 [11] = test: as above
Experimental: as §1

ACHN [12] = test: as above
Experimental: as §1

CAKI-1 [13] = test: as above
Experimental: as §1

SN12C [14] = test: as above
Experimental: as §1

TK-10 [15] = test: as above
Experimental: as §1

UO-31 [16] = test: as above
Experimental: as §1

769-P [17] = test: AUC of dose-response viability curve, drug + dasatinib, normalised to DMSO (arbitrary (AUC of normalised viability)); higher = less growth inhibition
Experimental: as §1

786-O [18] = test: as above
Experimental: as §1

A498 [19] = test: as above
Experimental: as §1

ACHN [20] = test: as above
Experimental: as §1

CAKI-1 [21] = test: as above
Experimental: as §1

SN12C [22] = test: as above
Experimental: as §1

TK-10 [23] = test: as above
Experimental: as §1

UO-31 [24] = test: as above
Experimental: as §1

| SMILES | GI50 of drug (769-P [1]) [nM] | GI50 of drug (786-O [2]) [nM] | GI50 of drug (A498 [3]) [nM] | GI50 of drug (ACHN [4]) [nM] | GI50 of drug (CAKI-1 [5]) [nM] | GI50 of drug (SN12C [6]) [nM] | GI50 of drug (TK-10 [7]) [nM] | GI50 of drug (UO-31 [8]) [nM] | minimum viability across doses (769-P [9]) | minimum viability across doses (786-O [10]) | minimum viability across doses (A498 [11]) | minimum viability across doses (ACHN [12]) | minimum viability across doses (CAKI-1 [13]) | minimum viability across doses (SN12C [14]) | minimum viability across doses (TK-10 [15]) | minimum viability across doses (UO-31 [16]) | AUC of dose-response viability curve (769-P [17]) | AUC of dose-response viability curve (786-O [18]) | AUC of dose-response viability curve (A498 [19]) | AUC of dose-response viability curve (ACHN [20]) | AUC of dose-response viability curve (CAKI-1 [21]) | AUC of dose-response viability curve (SN12C [22]) | AUC of dose-response viability curve (TK-10 [23]) | AUC of dose-response viability curve (UO-31 [24]) |
| --- | --- | --- | --- | --- | --- | --- | --- | --- | --- | --- | --- | --- | --- | --- | --- | --- | --- | --- | --- | --- | --- | --- | --- | --- |
| N#C/C(=C\c1ccc(O)c(O)c1)C(=O)NCc1ccccc1 [AG-490] + Cc1nc(Nc2ncc(C(=O)Nc3c(C)cccc3Cl)s2)cc(N2CCN(CCO)CC2)n1 [dasatinib] | 8560 | 2470 | > 10000 | 2330 | > 10000 | > 10000 | > 10000 | > 10000 | 0.488 | 0.355 | 0.887 | 0.179 | 0.667 | 0.681 | 0.544 | 0.8 | 2.42 | 2.36 | 3.3 | 1.98 | 2.43 | 2.49 | 2.62 | 3.44 |
| CC(C)(C)c1cc(C=C(C#N)C#N)cc(Br)c1O [AG-1024] + Cc1nc(Nc2ncc(C(=O)Nc3c(C)cccc3Cl)s2)cc(N2CCN(CCO)CC2)n1 [dasatinib] | > 10000 | > 10000 | > 10000 | > 10000 | > 10000 | > 10000 | > 10000 | > 10000 | 0.586 | 0.601 | 0.971 | 0.515 | 0.57 | 0.687 | 0.698 | 1.06 | 2.38 | 2.42 | 3.66 | 2.02 | 2.24 | 2.55 | 2.59 | 4.02 |
| COc1cc2ncnc(Nc3cccc(Cl)c3)c2cc1OC [AG-1478 (Tyrphostin AG-1478)] + Cc1nc(Nc2ncc(C(=O)Nc3c(C)cccc3Cl)s2)cc(N2CCN(CCO)CC2)n1 [dasatinib] | 107 | 37 | > 10000 | 20.9 | 7730 | > 10000 | 726 | > 10000 | 0.3 | 0.284 | 0.961 | 0.236 | 0.451 | 0.646 | 0.363 | 0.586 | 1.67 | 1.84 | 3.95 | 1.39 | 2.2 | 2.37 | 1.93 | 3.65 |
| COc1ccc2c(Oc3ccc(NC(=O)c4c(C)n(CC(C)(C)O)n(-c5ccccc5)c4=O)nc3)ccnc2c1 [AMG458] + Cc1nc(Nc2ncc(C(=O)Nc3c(C)cccc3Cl)s2)cc(N2CCN(CCO)CC2)n1 [dasatinib] | 3380 | 4000 | > 10000 | 1000 | 893 | 1730 | 5300 | 4300 | 0.421 | 0.195 | 0.771 | 0.152 | 0.085 | 0.396 | 0.392 | 0.0124 | 2.27 | 2.08 | 3.38 | 1.89 | 1.92 | 2.06 | 2.39 | 3.35 |
| Cc1csc(-c2nnc(Nc3ccc(Oc4ncccc4-c4ccnc(N)n4)cc3)c3ccccc23)c1 [AMG 900] + Cc1nc(Nc2ncc(C(=O)Nc3c(C)cccc3Cl)s2)cc(N2CCN(CCO)CC2)n1 [dasatinib] | 36.1 | 7.2 | > 10000 | 8.54 | 15.4 | 383 | 6460 | > 10000 | 0.211 | 0.117 | 0.562 | 0.186 | 0.286 | 0.319 | 0.459 | 0.604 | 1.44 | 0.863 | 3.08 | 1.25 | 1.32 | 1.93 | 2.2 | 4.1 |
| COc1ccc2c(OCc3nnc4ccc(-c5ccccc5)nn34)ccnc2c1 [AMG-208] + Cc1nc(Nc2ncc(C(=O)Nc3c(C)cccc3Cl)s2)cc(N2CCN(CCO)CC2)n1 [dasatinib] | > 10000 | > 10000 | > 10000 | > 10000 | > 10000 | > 10000 | > 10000 | > 10000 | 0.634 | 0.68 | 0.805 | 0.544 | 0.613 | 0.688 | 0.642 | 0.987 | 2.4 | 2.6 | 3.32 | 2.07 | 2.24 | 2.52 | 2.54 | 3.91 |
| O=C1NC(=O)[C@@H](c2cn3c4c(cccc24)CCC3)[C@@H]1c1c[nH]c2ccccc12 [ARQ 197 (Tivantinib)] + Cc1nc(Nc2ncc(C(=O)Nc3c(C)cccc3Cl)s2)cc(N2CCN(CCO)CC2)n1 [dasatinib] | 509 | 191 | 974 | 367 | 178 | 1870 | 1460 | 1980 | 0.0843 | 0.00404 | 0.133 | 0.147 | 0.0929 | 0.181 | 0.298 | 0.03 | 1.87 | 1.42 | 2.42 | 1.73 | 1.56 | 2.01 | 2.11 | 2.97 |
